{"source": "paper PMC3660367", "about": "“MARCKS Protein Is Phosphorylated and Regulates Calcium Mobilization during Human Acrosomal Exocytosis” (PLoS ONE, 2013)", "test_system": "intracellular calcium levels in human spermatozoa", "assay": "Intracellular calcium measurement of human spermatozoa (Fluo-3-AM)", "type": "cell-based", "conditions": "intact sperm, Fluo-3-AM 2 µM; 4 µM ED-TMR 30 min before 15 µM progesterone; three experiments", "method": "Calcium levels were measured in sperm suspensions using the intracellular fluorescent probe Fluo-3-AM. Motile sperm were adjusted to a concentration of 5–10 ×10^6 cells/ml and loaded with the permeable form of the dye (Fluo-3-AM, 2 µM) for 30 min at 37°C. Cells were washed once and resuspended in HTF. Sperm suspensions were transferred to thermostated (37°C) cuvettes for fluorescence measurements and stirred constantly. At the indicated times, 15 µM progesterone was added to the samples. When indicated, sperm where incubated 30 min in presence of 4 µM of the permeable tetramethylrhodamine-labeled MARCKS ED (ED-TMR) before adding progesterone. Fluo-3 fluorescence (λEx = 505 nm, λEm = 525 nm emission) was recorded in an AMINCO-Bowman Series 2 (AB2) spectrofluorometer. […] To calibrate the maximal response, intracellular calcium concentration ([Ca^2+]i) was determined using Triton X-100 (0.1%). […]\nFigure 5 Assessing MARCKS function on acrosomal exocytosis in non-permeabilized sperm. […] The increase in fluorescence is expressed as (F/F0)-1 ((maximum fluorescence intensity/initial fluorescence)-1) versus time in seconds. […] (D) Quantification of three independent experiments. […] Phosphorylated MARCKS was detected by Western blot assay using an anti-phospho-MARCKS antibody. […] Phosphorylated MARCKS was detected by Western blot assay using an anti-phospho-MARCKS antibody. […]", "note": "No end group written: not given here.", "data": [{"sequence": "KKRFSFKKSFKL (also: tetramethylrhodamine conjugate, site not given here) [ED-TMR, commercial (Anaspec) tetramethylrhodamine-conjugated peptide … from residues 154–165 of human MARCKS ED]", "values": [{"measurement": "effect on the increase in calcium levels caused by progesterone", "value": "significantly diminished"}]}]}
